# Reference: patent US5212202A, “Therapeutic cholesterol gallstone dissolution method” (priority 1992, dated 1993)
# Like-named read-outs stand apart in the source and are kept apart here.
# Columns and labels:
# [1] = in vitro dissolution of fresh human cholesterol gallstones in a model gallbladder at high flow rate (Table I); conditions: for Dissolution Rate / Dissolution Time: high flow rate; for Dissolution Rate: stone taken as 90% by weight cholesterol; for dissolution of cholesterol gallstones compared with MTBE: in words; for Dissolution Time: total dissolution, one stone of 132-175 mg per solvent
# Method: Their efficacy and the techniques of the present invention may be seen from the following data. In the tests described in Table I below, fresh human faceted cholesterol gallstones (kept in distilled water) were dissolved in vitro and the times were recorded for the total dissolution, using a model gallbladder at a high flow rate achieved by a metering pump. "High flow rate" as used herein will mean rates of flow in the range which can be anticipated to result in fluid turbulence for the solvent in the region of the biliary tract surrounding the calculi (gallstones). While "high" rates will vary according to solvent type and viscosity and with individual patients, it will be expected that appropriate flow rates will be at least about 20 ml/min, preferably at least about 100 ml/min, and more preferably at least about 150 ml/min. For comparison purposes a parallel test with MTBE is also shown.
# [2] = in vitro dissolution of matched cholesterol gallstones from cholecystectomy patients, 30 ml polyethylene bag model gallbladder, 180 ml/min (Table II); parameters: species or system human; conditions: five stones per set; for Mean Time (complete dissolution): mean stone weight 79-340 mg, 150 ml solvent
# [3] = treatment of a human patient with gallstones by solvent perfusion; type: in vivo
# Text: Another aspect of the invention is the in vivo dissolution of gallstones using the C5 -C6 ester solvents provided herein as the solvent in a high flow rate pumping system, in particular a continuous pumping system controlled by gallbladder pressure feedback and employing a delivery system consisting of a catheter, a continuous flow pumping system, a controller and a tubing set; see aforesaid U.S. patent application No. 07/482,194, filed Feb. 20, 1990, to S. Zakko, incorporated herein by reference.
# Such a pumping system, in combination with the low viscosity solvent provided herein, has the capability of emptying the gallbladder many times faster than the rate of normal gallbladder contraction, to prevent solvent from emptying into the intestine should such a gallbladder contraction occur during perfusion. […]
# Further, should the pressure remain above (as may occur with the beginning of a gallbladder contraction) or below the upper and lower pressure limits in excess of empirically determined delays, or above or below the upper and lower pressure alarms, for the associated delays, the controller causes the system to enter into an alarm mode in which both pumps operate in the aspiration direction at maximum flow rate to remove the low viscosity solvent.
# [4] = cited from earlier work
# [5] = perfusion of the gallbladder of an anesthetized pig, solvent level in central venous blood by gas chromatography
# [6] = in words; cited from earlier work
# [7] = in words; cited from earlier work; remark: listed apart in the source
# [8] = cited from earlier work; remark: listed apart in the source
Compound,Dissolution Rate [1],dissolution of cholesterol gallstones compared with MTBE [1],Dissolution Time [1],Overall Rate (dissolution) [2],Mean Time (complete dissolution) [2],Boiling Point ([4]; Table I),also measured
CCOC(=O)CC [ethyl propionate],13 mg/min,rate generally comparable to that of MTBE,10 min,12.22 mg/min,14 min,99 °C,"cholesterol concentration in the solvent during the procedure, versus previous procedures using MTBE ([3]; human patient): higher than concentrations observed during previous procedures conducted using MTBE; treatment of a human patient to eliminate cholesterol gallstones ([3]; one human patient): successful treatment; blood level of solvent throughout the procedure ([5]; before, 1 h and 2 h of perfusion, 30 and 60 min after): below the level of detectability"
CC(=O)OC(C)C [isopropyl acetate],9 mg/min,rate generally comparable to that of MTBE,14 min,5.48 mg/min,26 min,89 °C,
CCOC(=O)C(C)C [ethyl isobutyrate],8 mg/min,rate generally comparable to that of MTBE,15 min,4.55 mg/min,33 min,112 °C,
"CCCCCCCC(=O)OCC(O)CO (stereo not shown) [Monooctanoin, monooctanoin]",,,,,,,gallstone dissolution speed [6]: dissolves gallstones very slowly; viscosity [7]: relatively high viscosity
COC(C)(C)C [methyl t-butyl ether],20 mg/min,,8 min,7.69 mg/min,19 min,55 °C,"side effects in patients ([8]; believed caused by increased blood levels of MTBE): nausea and vomiting; systemic toxicity, pain and intestinal damage on escape into the small intestine ([8]; escape from gallbladder into small intestine): signs of systemic toxicity (sedation), pain and by endoscopy, damage to the epithelium of the small intestine; effect of entry into the blood stream ([8]; in vivo): hemolysis; renal failure ([8]; reversible): one; Boiling Point [4]: 55 °C; blood level of solvent during perfusion ([5]; 10 ml, 2 h gallbladder perfusion, central vein): 0.01-0.1 μl/ml; concentration ([5]; read-out: blood level of solvent during perfusion, 10 ml, 2 h gallbladder perfusion, central vein): 84 to 840 µM; blood level of solvent after perfusion ([5]; thirty and sixty minutes following perfusion): declined after perfusion"
"CCOCC [diethyl ether, reference compound]",,,,,,,Boiling point relative to body temperature ([4]; in words): below body temperature
CCCOC(C)=O [n-propyl acetate],14 mg/min,rate generally comparable to that of MTBE,10 min,4.45 mg/min,35 min,102 °C,
